# Reference: patent US20210395327A1, “Growth Hormone-Releasing Hormone Antagonists and Uses Thereof” (United States Government As Represented By The Department …, priority 2019, published 2021)
# “Also recorded” adds a separate entry of the source. Like-named read-outs stand apart in the source and are kept apart here. Non-standard residues stand in square brackets, D forms with d. Residues, ends and D or L forms follow the SMILES beside them. *: point of attachment. Phenylacetyl(2,3,4,5,6-F5) = O=C(Cc1c(F)c(F)c(F)c(F)c1F)*; Phe(F5) = N[C@@H](Cc1c(F)c(F)c(F)c(F)c1F)C(=O)O; Phe(4-Cl) = N[C@@H](Cc1ccc(Cl)cc1)C(=O)O; hArg = N=C(N)NCCCC[C@H](N)C(=O)O; 12Ado = NCCCCCCCCCCCC(=O)O; Nle = CCCC[C@H](N)C(=O)O; Orn = NCCC[C@H](N)C(=O)O; Abu = CC[C@H](N)C(=O)O; PhAc = O=C(Cc1ccccc1)*; Aoc = NCCCCCCCC(=O)O
# Key:
# [1] = biological target: T1, membrane GHRH-receptors on human anterior pituitary cells (Homo sapiens, UniProt Q02643); assay: Receptor binding, displacement of 125I-[His1,Nle27]-hGH-RH(1-32)NH2 on human pituitary membranes
# T1 construct: Human pituitary was purchased from the National Hormone and Peptide Program; tissue National Hormone and Peptide Program; host or cells: human pituitary (membrane fractions)
# T1 sequence (Q02643 23-423): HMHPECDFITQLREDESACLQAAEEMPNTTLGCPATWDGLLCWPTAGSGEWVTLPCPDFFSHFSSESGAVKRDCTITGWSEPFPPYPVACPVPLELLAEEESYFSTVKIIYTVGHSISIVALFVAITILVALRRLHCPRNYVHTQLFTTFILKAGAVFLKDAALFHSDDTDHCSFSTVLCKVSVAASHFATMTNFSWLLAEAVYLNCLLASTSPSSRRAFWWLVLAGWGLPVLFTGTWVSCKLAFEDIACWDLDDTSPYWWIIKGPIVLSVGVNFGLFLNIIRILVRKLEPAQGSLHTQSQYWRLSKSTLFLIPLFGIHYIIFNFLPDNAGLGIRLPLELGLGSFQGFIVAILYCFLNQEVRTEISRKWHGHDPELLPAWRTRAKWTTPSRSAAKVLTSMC
# Experimental: Receptor binding affinities in vitro. Preparation of human pituitary membrane fractions and receptor binding of analogs of GH-RH were performed (Halmos G, Rekasi Z, Szoke B, Schally A V. (1993) Receptor 3:87-97). Human pituitary was purchased from the National Hormone and Peptide Program. […] Relative affinities compared to hGH-RH(1-29)NH2 were calculated as the ratio of IC50 (dose causing 50% inhibition of specific binding to receptors) of the tested peptides to the IC50 of hGH-RH(1-29)NH2. The values were calculated from technical duplicate tubes.
# Nineteen new AVR analogs of GHRH were tested in the receptor binding assay. Table 6 presents the IC50 values of GHRH antagonists to membrane GHRH-receptors binding on human anterior pituitary cells.
# [2] = system: KATOIII stomach cancer cells; assay: In vitro cell viability, KATOIII; assay type: cell-based, human; settings: antagonist 5 μM for 72 h, cell proliferation assay; MIA602 = 1
# Experimental: (§1) The inhibitory effects of the various synthesized GHRH antagonists were tested in cell proliferation assays in various human cancer cell lines including stomach cancer (KATOIII, N87), colon cancer (HT-29), urothelial cancer (J82, RT4), pancreatic cancer (PANC-1, CFPAC-1), prostatic cancer (PC3), breast cancer (MX-1, HCC1806), ovarian cancer (SK-OV-3, OVCAR-3) and lung cancer (HCC827, H460).
# (§2) Cell culture. Human cancer cell lines including pancreatic (PANC-1 and CFPAC-1), lung (HCC827 and H460), stomach (NCI-N87 and KATOIII), urothelial (J82, RT4), prostatic (PC3), breast (MX-1 and HCC 1806), colorectal (HT-29), and ovarian (SK-OV-3 and OVCAR-3) were obtained from the American Type Culture Collection (ATCC) and cultured at 37° C. in a humidified 95% air/5% CO2 atmosphere in the medium recommended by ATCC.
# (§3) In vitro cell viability. Cell viability was analyzed as follows: cancer cells including pancreatic (PANC-1 and CFPAC-1), lung (HCC827 and H460), stomach (NCI-N87 and KATOIII), urothelial (J82, RT4), prostatic (PC3) and breast (MX-1 and HCC 1806), colorectal (HT-29) and ovarian (SK-OV-3 and OVCAR-3) were grown on 96 well plates to ˜60% confluence, the cells were starved for 24 h in culture medium containing 0.5% FBS. Cells were then treated with GHRH antagonists MIA602 AVR compounds at concentrations of 1, 2.5 or 5 μM, or vehicle (0.1% DMSO) in quintuplicates for 72 hours. The medium was replaced every 48 hours. Cell viability was measured using CellTiter 96 aqueous one solution kit (Promega). Inhibitory effects of tested AVR compounds in comparison to that of MIA602 are presented as inhibitory potency.
# (§4) Inhibitory effects of selected AVR compounds in comparison to that of MIA602 are presented as inhibitory potency (e.g., percentage of inhibition). […] The cell lines tested including lung cancer HCC827 (FIG. 2A), pancreatic cancer CFPAC-1 (FIG. 2B), stomach cancer N87 (FIG. 2C), colon cancer HT-29 (FIG. 2D), breast cancers MX-1 and HCC1806 (FIGS. 2 E, F). Based on the results of cell proliferation assay after cancer cells were treated with antagonist at concentration of 5 μM for 72H, the relative inhibitory potency of AVR antagonists in comparison to MIA-602 is summarized in Table 3 A and B. Over 60 AVR compounds were tested in 12 cancer cell lines.
# HCC827 lung cancer cells = assay: In vitro cell viability, HCC827; assay type: cell-based, human; settings: antagonist 5 μM for 72 h, cell proliferation assay; MIA602 = 1
# Experimental: as §1, §2, §3, §4
# (§5) Based on the results of cell proliferation assay after cancer cells were treated with antagonist at concentration of 5 µM for 72H, * at concentration of 2 µM for 72 H.
# [3] = system: CFPAC-1 pancreatic cancer cells; assay: In vitro cell viability, CFPAC-1; assay type: cell-based, human; settings: antagonist 5 μM for 72 h, cell proliferation assay; MIA602 = 1
# Experimental: as §1, §2, §3, §4, §5
Structure (SMILES),IC50 [1] [pM],"relative inhibitory potency in comparison to MIA-602, Stomach KATOIII [2]","relative inhibitory potency in comparison to MIA-602, Lung IICC827 (HCC827 lung cancer cells)","relative inhibitory potency in comparison to MIA-602, Pancreatic CFPAC-1 [3]","binding affinity to membrane receptors of human pituitary cells (in words) ([1]; competitive binding, human pituitary membrane fractions)","IC50 ([1]; membrane receptors on human anterior pituitary cells, mean of two to three determinations, read-out: IC50) [pM]"
"CCCC[C@H](NC(=O)[C@@H](NC(=O)[C@H](CC(=O)O)NC(=O)[C@H](CCC(N)=O)NC(=O)[C@H](CC(C)C)NC(=O)[C@H](CC(C)C)NC(=O)[C@H](CCCCN)NC(=O)[C@H](CCCNC(=N)N)NC(=O)[C@H](C)NC(=O)[C@H](CO)NC(=O)[C@H](CC(C)C)NC(=O)[C@H](CCC(N)=O)NC(=O)[C@H](CC)NC(=O)[C@H](CC(C)C)NC(=O)[C@@H](NC(=O)[C@H](CCCCN)NC(=O)[C@H](CCCNC(=N)N)NC(=O)[C@H](Cc1ccc(OC)cc1)NC(=O)[C@H](CCCCNC(=N)N)NC(=O)[C@H](CC(N)=O)NC(=O)[C@@H](NC(=O)[C@H](Cc1ccc(Cl)cc1)NC(=O)[C@@H](NC(=O)[C@H](C)NC(=O)[C@H](CC(=O)O)NC(=O)[C@@H](CCCNC(=N)N)NC(=O)[C@H](Cc1ccc(O)cc1)NC(=O)CCCCCCCCCCCNC(=O)Cc1ccccc1)[C@@H](C)CC)[C@@H](C)O)C(C)C)[C@@H](C)CC)C(=O)N[C@H](CCCNC(=N)N)C(=O)N[C@@H](CCCCNC(=N)N)C(=O)NCCCCCCCC(=O)NC [AVR-321, PhAC-Ada-Tyr-DArg-Asp-Ala-Ile-Cpa-Thr-Asn-Har-Tyr(Me)-Arg-Lys-Val-Leu-Abu-Gln-Leu-Ser-Ala-Arg-Lys-Leu-Leu-Gln-Asp-Ile-Nle-DArg-Har-Aoc-NHCH3] ({PhAc-12Ado}-Y[dR]DAI[Phe(4-Cl)]TN[hArg]Y(Me)RKVL[Abu]QLSARKLLQDI[Nle][dR][hArg][Aoc]-NHMe)",230,1.414,,,,
"CCCC[C@H](NC(=O)[C@@H](NC(=O)[C@H](CC(=O)O)NC(=O)[C@H](CCC(N)=O)NC(=O)[C@H](CC(C)C)NC(=O)[C@H](CC(C)C)NC(=O)[C@H](CCCN)NC(=O)[C@H](Cc1c[nH]cn1)NC(=O)[C@H](C)NC(=O)[C@H](CO)NC(=O)[C@H](CC(C)C)NC(=O)[C@H](CCC(N)=O)NC(=O)[C@H](CC)NC(=O)[C@H](CC(C)C)NC(=O)[C@@H](NC(=O)[C@H](CCCN)NC(=O)[C@H](Cc1c[nH]cn1)NC(=O)[C@H](Cc1c(F)c(F)c(F)c(F)c1F)NC(=O)[C@H](CCCCNC(=N)N)NC(=O)[C@H](C)NC(=O)[C@@H](NC(=O)[C@H](Cc1ccc(Cl)cc1)NC(=O)[C@@H](NC(=O)[C@H](C)NC(=O)[C@H](CC(=O)O)NC(=O)[C@@H](CCCNC(=N)N)NC(=O)[C@H](Cc1ccc(O)cc1)NC(=O)CCCCCCCCCCCNC(=O)Cc1c(F)c(F)c(F)c(F)c1F)[C@@H](C)CC)[C@@H](C)O)C(C)C)[C@@H](C)CC)C(=O)N[C@H](CCCNC(=N)N)C(=O)N[C@@H](CCCCNC(=N)N)C(=O)NC [AVR-542, 5FPhAC-Ada-Tyr-DArg-Asp-Ala-Ile-Cpa-Thr-Ala-Har-5FPhe-His-Orn-Val-Leu-Abu-Gln-Leu-Ser-Ala-His-Orn-Leu-Leu-Gln-Asp-Ile-Nle-DArg-Har-NHCH3] ({Phenylacetyl(2,3,4,5,6-F5)-12Ado}-Y[dR]DAI[Phe(4-Cl)]TA[hArg][Phe(F5)]H[Orn]VL[Abu]QLSAH[Orn]LLQDI[Nle][dR][hArg]-NHMe)",,,2.649,1.312,,
"CCCC[C@H](NC(=O)[C@@H](NC(=O)[C@H](CC(=O)O)NC(=O)[C@H](CCC(N)=O)NC(=O)[C@H](CC(C)C)NC(=O)[C@H](CC(C)C)NC(=O)[C@H](CCCN)NC(=O)[C@H](Cc1c[nH]cn1)NC(=O)[C@H](C)NC(=O)[C@H](CO)NC(=O)[C@H](CC(C)C)NC(=O)[C@H](CCC(N)=O)NC(=O)[C@H](CC)NC(=O)[C@H](CC(C)C)NC(=O)[C@@H](NC(=O)[C@H](CCCN)NC(=O)[C@H](Cc1c[nH]cn1)NC(=O)[C@H](Cc1c(F)c(F)c(F)c(F)c1F)NC(=O)[C@H](CCCCNC(=N)N)NC(=O)[C@H](C)NC(=O)[C@@H](NC(=O)[C@H](Cc1ccc(Cl)cc1)NC(=O)[C@@H](NC(=O)[C@H](C)NC(=O)[C@H](CC(=O)O)NC(=O)[C@@H](CCCNC(=N)N)NC(=O)[C@H](Cc1ccc(O)cc1)NC(=O)CCCCCCCCCCCNC(=O)Cc1c(F)c(F)c(F)c(F)c1F)[C@@H](C)CC)[C@@H](C)O)C(C)C)[C@@H](C)CC)C(=O)N[C@H](CCCNC(=N)N)C(=O)N[C@@H](CCCCNC(=N)N)C(=O)NCCCCCCCCCCCC(N)=O [AVR-552, 5FPhAC-Ada-Tyr-DArg-Asp-Ala-Ile-Cpa-Thr-Ala-Har-5FPhe-His-Orn-Val-Leu-Abu-Gln-Leu-Ser-Ala-His-Orn-Leu-Leu-Gln-Asp-Ile-Nle-DArg-Har-Ada-NH2] ({Phenylacetyl(2,3,4,5,6-F5)-12Ado}-Y[dR]DAI[Phe(4-Cl)]TA[hArg][Phe(F5)]H[Orn]VL[Abu]QLSAH[Orn]LLQDI[Nle][dR][hArg][12Ado]-NH2)",,,4.376,1.57,higher binding affinity in comparison to MIA-602; also recorded: highest binding affinities,170
"CCCC[C@H](NC(=O)[C@@H](NC(=O)[C@H](CC(=O)O)NC(=O)[C@H](CCC(N)=O)NC(=O)[C@H](CC(C)C)NC(=O)[C@H](CC(C)C)NC(=O)[C@H](CCCN)NC(=O)[C@H](Cc1c[nH]cn1)NC(=O)[C@H](C)NC(=O)[C@H](CO)NC(=O)[C@H](CC(C)C)NC(=O)[C@H](CCC(N)=O)NC(=O)[C@H](CC)NC(=O)[C@H](CC(C)C)NC(=O)[C@@H](NC(=O)[C@H](CCCN)NC(=O)[C@H](Cc1c[nH]cn1)NC(=O)[C@H](Cc1c(F)c(F)c(F)c(F)c1F)NC(=O)[C@H](CCCCNC(=N)N)NC(=O)[C@H](C)NC(=O)[C@@H](NC(=O)[C@H](Cc1ccc(Cl)cc1)NC(=O)[C@@H](NC(=O)[C@H](C)NC(=O)[C@H](CC(=O)O)NC(=O)[C@@H](CCCNC(=N)N)NC(=O)[C@H](Cc1ccc(O)cc1)NC(=O)CCCCCCCCCCCNC(=O)Cc1ccccc1)[C@@H](C)CC)[C@@H](C)O)C(C)C)[C@@H](C)CC)C(=O)N[C@H](CCCNC(=N)N)C(=O)N[C@@H](CCCCNC(=N)N)C(N)=O [MIA-690, reference compound] ({PhAc-12Ado}-Y[dR]DAI[Phe(4-Cl)]TA[hArg][Phe(F5)]H[Orn]VL[Abu]QLSAH[Orn]LLQDI[Nle][dR][hArg]-NH2)",530,,,,,
